These results are taken from patent US6403591B1, “1-azatricyclic-4-benzylpiperazines” (Neurogen Corporation, priority 1999, dated 2002).

Where only a bound is given, the exact number is not on record here.

Test [1] concerns the target primate D2 receptor (UniProt P52702). The test is described as follows: D2 receptor binding, 3H-YM 09151-2, CHO cell membranes. The conditions noted are these: recombinant primate D2 in CHO cells, 0.1 nM 3H-YM 09151-2, 25° C. How it is done: (§1) The following assay is a standard assay for determining the binding affinity of compounds to dopamine D4 and D2 receptors.
(§2) Pellets of Chinese hamster ovary (CHO) cells containing recombinantly produced primate D2, human D4 and human α1 receptors are used for the assays. The sample is homogenized in 100 volumes (w/vol) of 0.05 M Tris HCl buffer containing 120 mM NaCl, 5 mM MgCl2 and 1 mM EDTA at 4° C. and pH 7.4. The sample is then centrifuged at 30,000×g, resuspended and rehomogenized. The sample is then recentrifuged at 30,000×g, the supernatant is removed and the final tissue sample is frozen until it is needed. The tissue is resuspended 1:20 (wt/vol) in 0.05 M Tris HCl buffer containing 120 mM NaCl.
(§3) Incubations for dopaminergic binding are carried out at 25° C. and contain 0.4 ml of tissue sample, 0.1 nM ^3H-YM 09151-2 (Nemonapride, cis-5-Chloro-2-methoxy-4-(methylamino)-N-(2-methyl-2-(phenylmethyl)-3-pyrrolidinyl)benzamide) and the compound of interest in a total incubation of 1.0 ml. Nonspecific binding is defined as that binding found in the presence of 1 μM spiperone; without further additions, nonspecific binding is less than 20% of total binding.

Test [2] concerns the target T1, human D4 receptor (Homo sapiens, UniProt P21917).
T1 sequence (P21917 1-419): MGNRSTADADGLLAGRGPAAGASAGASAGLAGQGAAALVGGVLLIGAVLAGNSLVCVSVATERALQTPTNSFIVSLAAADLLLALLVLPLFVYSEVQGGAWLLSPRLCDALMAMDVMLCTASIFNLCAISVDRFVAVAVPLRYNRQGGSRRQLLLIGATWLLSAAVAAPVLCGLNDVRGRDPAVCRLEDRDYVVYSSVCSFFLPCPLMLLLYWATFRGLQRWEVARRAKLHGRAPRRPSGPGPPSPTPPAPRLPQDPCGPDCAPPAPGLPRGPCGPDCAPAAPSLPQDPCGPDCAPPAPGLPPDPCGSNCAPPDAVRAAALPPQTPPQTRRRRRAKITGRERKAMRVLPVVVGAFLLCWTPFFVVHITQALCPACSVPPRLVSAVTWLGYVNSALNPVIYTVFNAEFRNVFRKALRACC
The test is described as follows: D4 receptor binding, 3H-YM 09151-2, CHO cell membranes. Conditions: recombinant human D4 in CHO cells, 0.1 nM 3H-YM 09151-2, 25° C. As to the method:
as §1, §2, §3

For test [3], the system named is human α1 receptor. Kind of test: α1 receptor binding, 3H-prazosine, CHO cell membranes. Conditions: recombinant human α1 in CHO cells. As to the method:
as §2
Norepinephrine al binding is carried out using ^3H-prazosine as the ligand. Nonspecific binding is determined in the presence of 1 μM prazosine. Preferably, dopamine antagonists should not interact with the α1 adrenergic receptor, as interactions with this G-coupled protein receptor give rise to types of hypotension.

primate D2 receptor, sequence (P52702 whole entry): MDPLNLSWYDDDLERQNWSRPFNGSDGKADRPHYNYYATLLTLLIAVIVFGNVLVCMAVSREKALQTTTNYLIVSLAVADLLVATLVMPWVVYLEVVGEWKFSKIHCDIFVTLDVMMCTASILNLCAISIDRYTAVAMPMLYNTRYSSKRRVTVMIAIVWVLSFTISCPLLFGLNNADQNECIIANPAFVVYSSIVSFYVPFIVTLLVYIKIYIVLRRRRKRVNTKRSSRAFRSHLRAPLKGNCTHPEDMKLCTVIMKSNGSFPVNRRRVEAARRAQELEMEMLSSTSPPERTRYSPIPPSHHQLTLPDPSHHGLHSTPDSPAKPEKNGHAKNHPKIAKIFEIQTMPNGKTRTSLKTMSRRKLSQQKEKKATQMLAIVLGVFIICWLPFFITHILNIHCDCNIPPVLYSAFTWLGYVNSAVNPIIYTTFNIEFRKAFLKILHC

Take `CC1Cc2cccc3c2N1C(=O)C(N1CCN(Cc2ccc(Cl)cc2)CC1)CC3` (mixture of isomers) [Compound 4]: the Ki in test [1] is 50 nM; in test [2], 9 nM; in test [3] it was over 1000 nM.
As for `CC1(C)Cc2cccc3c2N1C(=O)C(N1CCN(Cc2ccc(Cl)cc2)CC1)CC3` (centres unmarked) [Compound 2, 5-[(4-chlorobenzyl)piperazin-1-yl]-2,2-dimethyl-1,2,4,5,6,7-hexahydro-4-oxo-pyrrolo-[3,2,1-jk][1]benzazepine], the inhibition constant Ki in test [2] came out at 19 nM.
`Cc1ccc(CN2CCN(C3CCc4cccc5c4N(CC5)C3=O)CC2)cc1` (centres unmarked) [Compound 1, 5-[(4-methylbenzyl)piperazin-1-yl]-1,2,4,5,6,7-hexahydro-4-oxo-pyrrolo-[3,2,1-jk][1]benzazepine]: the inhibition constant Ki in test [2] was found to be 4 nM.
